GI50 and TGI data for eight compounds are collected here from PubChem BioAssay (NCI).

Values joined by “and” are separate entries in the source; they are usually repeats but may differ in a detail not shown here. Identical values can stand only once.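 Each compound was tested at five concentrations against cells in 96-well plates for 48 hours. Abbreviation: GI50, concentration required for 50% inhibition of growth. TGI: total growth inhibition.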 Bounds are passed on as bounds.

Some test systems named below: A498 renal; CAKI-1 renal; HCC-2998 colon; M14 melanoma; MDA-MB-231 breast; NCI-H522 lung; SW-620 colon; T-47D breast; TK-10 renal; UO-31 renal.
Assay in all cases: inhibition of tumour cell growth, NCI panel, 48 h

With `CN(C)/N=N/c1nc[nH]c1C(N)=O`, the GI50 was 72.4 µM and > 133 µM in the assay with A498 renal; 58.4 µM in the assay on HCC-2998 colon; 92.8 µM with M14 melanoma; 82 µM in the assay on NCI-H522 lung; 32.9 µM with SW-620 colon; 77.3 µM in the assay with T-47D breast. The results for the GI50 in the assay on TK-10 renal and in the assay with UO-31 renal were 46.8 µM and 24.5 µM, respectively. Besides, the TGI is more than 875 µM with A498 renal; 71.7 µM and 539 µM with CAKI-1 renal; 99.5 µM and > 654 µM with HCC-2998 colon; more than 1000 µM in the assay with M14 melanoma; more than 1000 µM in the assay on MDA-MB-231 breast; 89.3 µM and > 779 µM in the assay on NCI-H522 lung. Besides, the TGI in the assay with SW-620 colon was more than 1000 µM; in the assay on T-47D breast, more than 464 µM; with TK-10 renal it was 828 µM; in the assay on UO-31 renal, 96.9 µM and > 793 µM.

Consider `COc1ccc(-c2nn(-c3ccc(NC(=O)Nc4ccc(Cl)c(C(F)(F)F)c4)cc3)cc2-c2ccncc2)cc1Cl`, for which the GI50 in the assay with A498 renal is 1.62 µM; in the assay on CAKI-1 renal, 1.78 µM; with HCC-2998 colon, 2.19 µM; in the assay on M14 melanoma it was 1.49 µM; with MDA-MB-231 breast it was 1.2 µM; in the assay on NCI-H522 lung, 1.27 µM. The GI50 with SW-620 colon is 1.93 µM; in the assay with T-47D breast it was 2.72 µM; with TK-10 renal, 1.41 µM; with UO-31 renal it was 1.1 µM. The TGI in the assay with A498 renal was determined as 5.18 µM; in the assay on CAKI-1 renal, 5.18 µM; with HCC-2998 colon, 7.97 µM; in the assay on M14 melanoma, 3.13 µM; in the assay on MDA-MB-231 breast, 2.67 µM; with NCI-H522 lung, 3.95 µM. For the same compound, the TGI was determined as 4.4 µM in the assay with SW-620 colon, 7.73 µM in the assay with T-47D breast, 5.27 µM in the assay with TK-10 renal and 3.05 µM in the assay on UO-31 renal.

`CC(C)(C)CC(C)(C)c1ccc(O)c(C[N+](C)(C)[O-])c1`: the TGI in the assay on A498 renal, in the assay on CAKI-1 renal, with HCC-2998 colon, in the assay on M14 melanoma, in the assay on MDA-MB-231 breast and with NCI-H522 lung was more than 100 µM throughout. The TGI with SW-620 colon, with T-47D breast, with TK-10 renal and in the assay with UO-31 renal was more than 100 µM in each case.

`O=C(O)C(=O)/C=C(\O)c1ccc(Br)cc1`: the TGI in the assay on A498 renal, with CAKI-1 renal, with HCC-2998 colon, in the assay with M14 melanoma, in the assay with MDA-MB-231 breast and with NCI-H522 lung was more than 100 µM throughout. Moreover, the TGI in the assay with SW-620 colon, in the assay with T-47D breast, in the assay on TK-10 renal and in the assay with UO-31 renal was more than 100 µM in each case.

Regarding `CCOC(=O)/C=C(\C(=O)OCC)n1ccc(=O)[nH]c1=O`, the TGI in the assay on A498 renal came to 34.8 µM; in the assay on CAKI-1 renal it was 3.52 µM; in the assay with HCC-2998 colon, 38.4 µM; with M14 melanoma it was 31.4 µM; in the assay with MDA-MB-231 breast, 32.6 µM; in the assay with NCI-H522 lung it was 2.12 µM. Moreover, the TGI with SW-620 colon came out at 7.85 µM; in the assay with T-47D breast it was 33.1 µM; in the assay with TK-10 renal it was 26.2 µM; in the assay with UO-31 renal it was 31.1 µM.

Regarding `O=C1C(=Cc2ccc(Cl)c(Cl)c2)C([O-])=C([P+](c2ccccc2)(c2ccccc2)c2ccccc2)C([O-])=C1[P+](c1ccccc1)(c1ccccc1)c1ccccc1`, the TGI in the assay with A498 renal is 31.9 µM; in the assay on CAKI-1 renal, 6.78 µM; with HCC-2998 colon it was 5.78 µM; in the assay with M14 melanoma, 6.66 µM; with MDA-MB-231 breast, 8.78 µM; with NCI-H522 lung it was 4.1 µM. The TGI in the assay with SW-620 colon amounted to 6.75 µM; with T-47D breast, 15.7 µM; with TK-10 renal, 5.6 µM; in the assay on UO-31 renal, 8.89 µM.

`C=C(c1ccccc1)c1ccccc1-c1cc(-c2ccccc2)cc(-c2ccccc2)n1`: the TGI in the assay with A498 renal, with CAKI-1 renal, in the assay on HCC-2998 colon, in the assay on M14 melanoma, with MDA-MB-231 breast and in the assay with NCI-H522 lung was more than 100 µM in each case. The TGI in the assay with SW-620 colon is more than 100 µM; in the assay on T-47D breast, 61.3 µM; in the assay with TK-10 renal it was more than 100 µM; with UO-31 renal, more than 100 µM.

Turning to `Cn1c(O)c(C=Nc2ccccc2Cl)c(=O)n(C)c1=O`, the TGI with A498 renal is more than 100 µM; in the assay on CAKI-1 renal it was more than 100 µM; in the assay on HCC-2998 colon it was 34.2 µM; with M14 melanoma, 48.9 µM; with MDA-MB-231 breast, more than 100 µM; in the assay on NCI-H522 lung it was more than 100 µM. The TGI in the assay on SW-620 colon is more than 100 µM; in the assay with T-47D breast it was 65.5 µM; in the assay on TK-10 renal it was more than 100 µM; with UO-31 renal, more than 100 µM.
